“Also recorded” adds a separate entry of the source.
Key:
[1] = biological target: Bradyrhizobium japonicum MarR_Bj2; test: ITC IAA binding to MarR_Bj2; conditions: 25 °C, IadR2 (MarR_50-like)
Method: (§1) The coding sequence for each gene can be found in Supplementary Table 10. MarR expression plasmids were synthesized as codon-optimized genes for E. coli expression by BioBasic in the pLIC-His N-term vector (pMCSG7) and transformed into E. coli BL21 (DE3) Gold cells for expression. […] At an OD600 of 0.8, protein expression was induced by the addition of 0.1 mM IPTG and incubation continued overnight. Cells were collected by centrifugation at 4,500 × g for 20 min at 4 °C in a Sorvall (model RC-3B) swinging bucket centrifuge. Cell pellets were resuspended in buffer A (20 mM potassium phosphate, pH 7.4, 50 mM imidazole, 500 mM NaCl), DNase, lysozyme and a Roche Complete EDTA-free protease inhibitor tablet. Resuspended cells were sonicated and clarified via centrifugation at 17,000 × g for 60 min in a Sorvall (model RC-5B) swinging bucket centrifuge. The lysate was applied to a nickel-nitrilotriacetic acid HP column (GE Healthcare) on an Aktaxpress Fast Performance Liquid Chromatography (FPLC) system (Amersham Bioscience) and washed with buffer A. Protein was eluted with buffer B (20 mM potassium phosphate, pH 7.4, 500 mM imidazole, 500 mM NaCl). Fractions containing the protein of interest were combined and passed over a HiLoadTM 16/60 SuperdexTM 200 gel filtration column. Proteins were eluted in S200 buffer (20 mM HEPES, pH 7.4, 300 mM NaCl). […]

[2] = biological target: T1, Enterobacter soli LF7 MarR_Es (Enterobacter soli, UniProt A0AAW8H3I9, A146S); test: ITC IAA binding to MarR_Es; conditions: 25 °C, IacR
T1 sequence (A0AAW8H3I9 1-157 A146S): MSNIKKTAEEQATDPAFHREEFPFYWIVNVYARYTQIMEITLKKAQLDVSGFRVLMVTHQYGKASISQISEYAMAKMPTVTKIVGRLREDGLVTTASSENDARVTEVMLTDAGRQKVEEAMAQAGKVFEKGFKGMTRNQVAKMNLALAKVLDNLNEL
Method: All ITC measurements were performed at 25 °C using an Auto-ITC200 microcalorimeter (MicroCal/GE Healthcare). The buffer employed was 20 mM HEPES, pH 7.4, 50 mM NaCl and 0.5% dimethly sulfoxide (DMSO) for protein/ligand binding and 20 mM HEPES, pH 7.4 and 300 mM NaCl for DNA/protein binding experiments. For ligand binding experiments, the calorimetry cell (volume 200 ml) was loaded with MarR wild-type, mutant or homologue protein at a concentration of 50 μM. The syringe was loaded with a ligand concentration of 0.5 or 2 mM. […] A typical injection protocol included a single 0.2 μl first injection followed by 20 1.5 μl injections of the syringe sample into the calorimetry cell. The spacing between injections was kept at 180 s and the reference power at 8 μcal s^−1. The data were analysed using Origin for ITC version 7.0 software supplied by the manufacturer and fit well to a one-site binding model. Two independent ITC measurements were performed for each condition.

[3] = biological target: Acinetobacter baumannii MarR_Ab (Acinetobacter baumannii, UniProt A0ABX6CGA9); test: ITC IAA binding to MarR_Ab
Method: as §1

[4] = biological target: Bradyrhizobium japonicum MarR_Bj1 (Bradyrhizobium japonicum, UniProt A0A0A3XYM8); test: ITC IAA binding to MarR_Bj1; conditions: 25 °C, IadR (MarR_73-like)
Bradyrhizobium japonicum MarR_Bj1, sequence (A0A0A3XYM8 entry or part of it): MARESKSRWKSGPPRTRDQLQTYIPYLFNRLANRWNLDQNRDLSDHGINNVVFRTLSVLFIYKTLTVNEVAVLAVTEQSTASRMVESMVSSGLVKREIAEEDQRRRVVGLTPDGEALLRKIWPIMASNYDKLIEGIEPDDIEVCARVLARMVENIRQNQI
Method: as §1

MarR_73 R46A = MarR_73 R46A (Variovorax paradoxus, UniProt C5CSP2, R46A); test: biochemical
MarR_73 R46A, sequence (C5CSP2 1-158, stated change not applied): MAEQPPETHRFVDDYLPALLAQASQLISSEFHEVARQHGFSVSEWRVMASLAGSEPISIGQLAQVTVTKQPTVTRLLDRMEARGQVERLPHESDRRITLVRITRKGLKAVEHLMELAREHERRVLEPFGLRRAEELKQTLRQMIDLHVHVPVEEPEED
Method: (§2) The coding sequence for each gene can be found in Supplementary Table 10. MarR expression plasmids were synthesized as codon-optimized genes for E. coli expression by BioBasic in the pLIC-His N-term vector (pMCSG7) and transformed into E. coli BL21 (DE3) Gold cells for expression. […] At an OD600 of 0.8, protein expression was induced by the addition of 0.1 mM IPTG and incubation continued overnight. Cells were collected by centrifugation at 4,500 × g for 20 min at 4 °C in a Sorvall (model RC-3B) swinging bucket centrifuge. Cell pellets were resuspended in buffer A (20 mM potassium phosphate, pH 7.4, 50 mM imidazole, 500 mM NaCl), DNase, lysozyme and a Roche Complete EDTA-free protease inhibitor tablet. Resuspended cells were sonicated and clarified via centrifugation at 17,000 × g for 60 min in a Sorvall (model RC-5B) swinging bucket centrifuge. The lysate was applied to a nickel-nitrilotriacetic acid HP column (GE Healthcare) on an Aktaxpress Fast Performance Liquid Chromatography (FPLC) system (Amersham Bioscience) and washed with buffer A. Protein was eluted with buffer B (20 mM potassium phosphate, pH 7.4, 500 mM imidazole, 500 mM NaCl). Fractions containing the protein of interest were combined and passed over a HiLoadTM 16/60 SuperdexTM 200 gel filtration column. Proteins were eluted in S200 buffer (20 mM HEPES, pH 7.4, 300 mM NaCl). Fractions were combined and concentrated for long-term storage at −80 °C.
(§3) MarR mutant proteins were created by site-directed mutagenesis using primers from Integrated DNA Technologies. […] The mutants were produced and purified using E. coli BL21 (DE3) Gold as described above.
(§4) All ITC measurements were performed at 25 °C using an Auto-ITC200 microcalorimeter (MicroCal/GE Healthcare). The buffer employed was 20 mM HEPES, pH 7.4, 50 mM NaCl and 0.5% dimethly sulfoxide (DMSO) for protein/ligand binding and 20 mM HEPES, pH 7.4 and 300 mM NaCl for DNA/protein binding experiments. For ligand binding experiments, the calorimetry cell (volume […]) was loaded with MarR wild-type, mutant or homologue protein at a concentration of 50 μM. The syringe was loaded with a ligand concentration of 0.5 or 2 mM. […] A typical injection protocol included a single 0.2 μl first injection followed by 20 1.5 μl injections of the syringe sample into the calorimetry cell. The spacing between injections was kept at 180 s and the reference power at 8 μcal s^−1. […] Two independent ITC measurements were performed for each condition.

MarR_73 H32A = MarR_73 H32A (Variovorax paradoxus, UniProt C5CSP2, H32A); test: biochemical
MarR_73 H32A, sequence (C5CSP2 1-158, stated change not applied): as above
Method: as §2, §3, §4

MarR_73 S28A R46A = MarR_73 S28A R46A (Variovorax paradoxus, UniProt C5CSP2, R46A/S28A); conditions: ITC, 25 °C; mutant S28A R46A
MarR_73 S28A R46A, sequence (C5CSP2 1-158, stated change not applied): as above
Method: as §1

O=C(O)Cc1c[nH]c2ccccc12 [IAA, indole-3-acetic acid]
KD1 [1]: did not bind; also recorded: No Binding
N1 [2]: 0.967 ± 0.006
Kd [3]: 1.29 ± 0.101 µM
N1 ([3]; ITC, 25 °C, IacR): 0.911 ± 0.011
N1 [4]: 1.001 ± 0.069
Kd (MarR_73 R46A): 11 ± 1 µM
N (MarR_73 R46A; ITC, 25 °C, mutant R46A): 1.1 ± 0.1
Kd (MarR_73 H32A): 3.1 ± 0.1 µM
N (MarR_73 H32A; ITC, 25 °C, mutant H32A): 0.28 ± 0.01
N (MarR_73 S28A R46A): 1.2 ± 0.2

Source: publication PMC9613470, “Diverse MarR bacterial regulators of auxin catabolism in the plant microbiome” (Nature Microbiology, 2022)
